# Read-outs that look alike come from different tables or passages of the source.
# Key:
# SH2 domain = conditions: validated SH2 domain ligand; cited from earlier work
# Src tyrosine kinase [1] = target: T1, Src tyrosine kinase (Homo sapiens, UniProt P12931); assay: Src kinase inhibition; type: biochemical
# Src tyrosine kinase [2] = target: T1, Src tyrosine kinase; conditions: cited from earlier work
# [3] = Table 1, Src inhibitors, pre-photolysis
Substance,IC50 (Src tyrosine kinase [1]; [3]) [nM],further results
Ac-pTyrGluGluIle-amide,–,Kd (SH2 domain): 1000 to 5000 nM
Ba-EEEIFGE-III-Dap(Hna)-βA3-pY-III-EIEX [Compound 9],7500,–
Ba-EEEIFGEF-Dap(Hna)-βA3-pYEEIEX [Compound 1],–,IC50 (Src tyrosine kinase [2]): 36 ± 2 nM; Ki (Src tyrosine kinase [2]): 26 ± 4 nM
Ba-EEEIFGEF-Dap(Hna)-βA-II-βA-pYEEIEX [Compound 5],38 ± 4,–

# The next lines start with results.
IC50 (Src tyrosine kinase [1]; [3]) [nM],Substance,further results
220 ± 10,Ba-EEEIFGE-II-Dap(Hna)-βA3-pYEEIEX [Compound 7],–
115 ± 9,Ba-EEEIFGEF-Dap(Hna)-βA-I-βA-pYEEIEX [Compound 4],–
1600,Ba-EEEIFGEF-Dap(Hna)-βA-III-βA-pY-III-EIEX [Compound 10],–
18 ± 5,Ba-EEEIFGEF-Dap(Hna)-βA-III-βA-pYEEIEX [Compound 6],"Src kinase activity in the presence of inhibitor (Src tyrosine kinase [1]; 1.9 μM inhibitor, no irradiation): completely blocked; IC50 (Src tyrosine kinase [1]; in the presence of 320 μM Ac-pTyrGluGluIle-amide (SH2 ligand competition)): 325 ± 60 nM"
56 ± 4,Ba-EEEIFGEF-Dap(Hna)C-III-βA-pYEEIE-NH2 [Compound 11],–

# From paper PMC2628309 (Journal of the American Chemical Society, 2008)
